The term refractive index denotes a measure of how strongly the sample bends light.

The structures appear in SMILES notation. Numbers after ± are expanded uncertainties.

The nature of the series: refractive index (Na D-line) (dimensionless). The conditions noted are these: 293.1 K; 101.33 kPa; Liquid; Standard Abbe refractometry.
`CCCCCCCCCCCCCCCC` [hexadecane]: the refractive index was found to be 1.4344 ± 0.0007. On to `Cc1cc(C)cc(C)c1` [1,3,5-trimethylbenzene], for which the refractive index came out at 1.4992 ± 0.0007. Turning to `CN1CCCC1=O` [N-methylpyrrolidone], the refractive index was 1.4686 ± 0.0007.
